Experimental data published in patent US20250228864A1, “THERAPIES FOR THE TREATMENT OF INFLAMMATORY BOWEL DISEASE” (Gilead Sciences, Inc., priority 2023, published 2025).

Tested on: IL10−/− knockout mouse colitis model
Test: Example 2: efficacy in mouse IL10−/− knockout colitis model
Type: in vivo
Settings: 21 days
Procedure: The following study was conducted to evaluate the efficacy of an α4β7 integrin small molecule inhibitor relative to no treatment and to an IL-12/IL-23 inhibitor (anti-p40 antibody a murine surrogate of ustekinumab). […] Endpoint analysis included measurement of colon lamina propria lymphocytes, and histology scoring of the colon tissue.
Mice were treated for three (3) weeks with Formula (III) mixed with food chow (0.125%), and 4 mg/kg anti-p40 dosed intraperitoneally every four (4) days […].
Female IL-10 deficient C57CL/6 mice (aged 12 weeks at study inception) were used in this study. All animal experiments were conducted according to Swiss animal well fare law and approved by the local animal welfare authority of Zurich County (Tierversuchskommission Zürich, Zurich, Switzerland, License No. ZH256-2014).
Mice were administered either standard chow diet (Harlan Teklad Global Diets 2014, TD2014) or standard chow diet plus 0.125% of in chow. Formula (III) schedule was ad libitum while the Anti-p40 antibody was administered via intraperitoneal injection on day 1 and then every four days for three weeks.
The compound was added and mixed into the chow powder at 0.125% concentration, anti-p40 antibody was diluted in phosphate buffered saline (2 mg/mL) (anti-p40 antibody, a murine surrogate of ustekinumab) then dosed at 4 mg/kg every four days by intraperitoneal injection. […] The mice were then treated for three (3) weeks (21-days). On Day 21, mice were sacrificed, blood and tissue samples were collected for further analysis. While untreated IL-10−/− knockout mice progressively lost body weight and manifested colitis activity (measured by weight loss, stool frequency and stool consistency).
Mice were anesthetized with and mixture of ketamine (90-120 mg/kg-1 body weight, Vétoquinol, Bern, Switzerland) and Xylazine (8 mg/kg-1 body weight, Bayer, Lyssach, Switzerland) by intraperitoneal injection. Colonoscopies were performed as described in Becker C, Fantini M C, Neurath M F. High resolution colonoscopy in live mice. Nat. Protoc, 2006; 1:2900-4. The procedure was recorded with a Karl Storz Tele Pack Pal 20,043,020 (Karl Storz Endoskope, Tuttlingen, Germany). Scoring of the colonoscopy was done in accordance with the Murine Endoscopic Index of Colitis Severity (MEICS) scoring system as described in Becker C., Fantini M. C., Neurath M. F. High resolution colonoscopy in live mice. Nat. Protoc. 2006; 1:2900-2904. doi: 10.1038/nprot.2006.446. The following five (5) parameters were assessed: (1) transparency of the colon; (2) changes of the vascular pattern; (3) fibrin visible; (4) granularity of the mucosal surface; and (5) stool consistency.
Tissue Extraction: Mouse colons were extracted and fixed in 4% formalin, embedded in paraffin and then cut into 5-μm sections. The colon sections where then deparaffinized and stained with hematoxylin and eosin.
Mouse colons were extracted and opened up in a longitudinal orientation, placed in a 15 mL falcon tube, rinsed with PBS (Gibco, Thermo Fisher Scientific, Carlsbad, CA, USA). The colon was then cut into 2 mm^2 sized samples and washed with 2% FBS HBSS (Thermo Fisher Scientific). The supernatant was discarded, resuspended in HBSS supplemented with 2 mM EDTA (Thermo Fisher Scientific) and then incubated at 37° C. on a shaker (300 rpm) for 15 minutes. Upon completion of the incubation the tubes were vigorously shaken, the supernatant was carefully discarded, and the sample was washed with HBSS. Next, the samples were resuspended in a digestion buffer consisting of Dispase (0.6 mg/mL, Gibco) supplemented Collagenase IV (0.4 mg/mL; Clostridium Histolyticum, Sigma-Aldrich). The solution was incubated for 20 minutes on a 37° C. shaker (300 rpm). Upon completion, the samples were homogenized by passing the solution through a 18+1.5-gauge needle. Samples where then stained with TH1, TH17, Neutrophils, and Treg antibodies followed by preforming Flow cytometry analysis of the mice immune cells of the colon tissue. […]

CCOC(=O)[C@H](Cc1ccc(-n2c(=O)c3ccncc3n(C)c2=O)c2ncccc12)NC(=O)c1c(C)cc(N2CCOC[C@@H]2C(F)(F)F)cc1F (atropisomer, axis not shown) [Formula (III)] was tested, and the “disease activity (weight loss, stool frequency, stool consistency)” value (0.125% in chow ad libitum) was “reduced disease activity”, the body weight loss (0.125% in chow ad libitum, vs untreated IL-10−/− mice) was “ameliorated body weight loss” and the “TH1 cells in colon tissue (flow cytometry)” value (0.125% in chow) was “significantly reduced”. The “TH17 cells in colon tissue (flow cytometry)” value (0.125% in chow) was “significantly reduced”, the “frequency of the Treg in colon tissue (flow cytometry)” value (0.125% in chow) was “without affecting” and the “neutrophils in colon tissue (flow cytometry)” value (0.125% in chow) was “significantly reduced”. For the same molecule, the histopathology score (0.125% in chow, compared to the non-treatment group) was “reduced histopathology score”, the “colonoscopy score (MEICS)” value (0.125% in chow, over the non-treatment group) was “significantly improved” and the “proinflammatory cytokines detected in the blood” value was “reduced proinflammatory cytokines”. The intestine inflammation (single agent) was “significantly ameliorates”.
